From patent US20110014185A1, “METHODS INVOLVING GRAF POLYPEPTIDES” (priority 2008, published 2011)
Entries after “also recorded” stand apart in the source; their conditions may differ.

Assays:
[1] = acute ischaemic stroke; cited from earlier work
HeLa cells [2] = experiment: GRAF1 localisation by immunofluorescent staining; format: cell-based, human; conditions: for colocalisation of GRAF1 with focal complex markers / number of GRAF1-positive tubules: 40 uM Y-27632 for 40 minutes
Description: FIG. 8 GRAF1 mediated trafficking is dependent upon dynamin and small G-proteins. a, HeLa cells incubated either with medium including vehicle (DMSO) or 50 um dynasore for 15 minutes before addition of dextran to these, cells for a further 15 minutes, (with DMSO/dynasore concentrations being retained throughout), before fixation and staining for GRAF1, dextran and paxillin. […] Note the absence of GRAF1-positive tubules in transfected cells. Scale bars=10 um. […] Note that endogenous GRAF1 tubes originate from within rings of beta1-integrins (a). […] Protein expression and purification Antibodies and constructs used are described in supplemental methods. Recombinant proteins were expressed in a BL21 (DE3) pLysS E-coli strain as Glutathione Stransferase (GST)-fusion proteins and purified using glutathione-Sepharose 4B beads (Amersham Biosciences) and gel filtration on a sephacryl S-200 column (Amersham) as previously described27. For analysis of endogenous protein expression, cell lines were grown according to instructions from American Tissue Culture Collection, harvested and lysed in 1% NP-40 in PBS supplemented with protease inhibitors. After a 20,000 g centrifugation the supernatant was analysed by SDS-PAGE and immunoblotting. Protein and lipid interaction assays Liposomes from total brain lipids (FOLCH fraction I) (Sigma Aldrich), from synthetic lipids (Avanti Polar Lipids), and liposomes of a specified diameter were generated as previously described10. Liposome binding assays for lipid specificity and curvature sensitivity was performed as previously described10. Briefly, proteins were incubated together with liposomes followed by centrifugation and analysis of the pellet and supernatant by SDS-PAGE and Coomassie staining. For immunoprecipitation experiments, rat brain cytosol was generated by homogenisation of rat brains in buffer (25 mM HEPES, 150 mM NaCl, 1 mM DTT, 0.1% Triton X-100 and protease inhibitors), before centrifugation at 50,000 rpm for 30 mins at 4i ? C. The supernatant was removed and added to protein A Sephorose 4B beads (Amersham Biosciensis) to which antibodies had been previously bound and incubated at 4° C. for 3 hrs. Beads were washed three times in buffer (25 mM HEPES, 150 mM NaCl) supplemented with 1% NP-40, and once in buffer without NP-40 before analysis by SDS-PAGE combined with immunoblotting or Coomassie staining. Pull-down experiments against rat brain cytosol using purified proteins and identification by mass-spectrometry were performed as previously described27. In vitro liposome tubulation assays were performed and analysed as previously described 10. Cell culture and transfections HeLa cells were grown in RPM1 1640 media (GIBCO) supplemented with L-Glutamine and 10% fetal bovine serum and transfected using Genejuice (Novagen) for transient protein expression. For primary cultures, rat hippocampal neurons/astrocytes were prepared by trypsin digestion and mechanical trituration from E18 or P1 Sprague-Dawley rats and plated onto poly L-lysine coated coverslips. Cells were cultured in B27-supplemented Neurobasal media. For GRAF1 depletion, HeLa cells were transfected with stealth siRNAs specific against human GRAF1 (Invitrogen) using Lipofectamine 2000 (Invitrogen) according to manufacturers instructions. Cells were cultured for an additional 48 hrs for efficient silencing of the GRAF1 expression. Stealth Block-it siRNA (Invitrogen) was used as a control. AP2 siRNA was used as previously described28. […]

HeLa cells [3] = experiment: tubular dextran uptake by immunofluorescence; format: cell-based, human; conditions: 50 um dynasore 15 minutes before dextran, further 15 minutes
Description: FIG. 8 GRAF1 mediated trafficking is dependent upon dynamin and small G-proteins. a, HeLa cells incubated either with medium including vehicle (DMSO) or 50 um dynasore for 15 minutes before addition of dextran to these, cells for a further 15 minutes, (with DMSO/dynasore concentrations being retained throughout), before fixation and staining for GRAF1, dextran and paxillin. […] Note the absence of GRAF1-positive tubules in transfected cells. Scale bars=10 um.
Protein expression and purification Antibodies and constructs used are described in supplemental methods. Recombinant proteins were expressed in a BL21 (DE3) pLysS E-coli strain as Glutathione Stransferase (GST)-fusion proteins and purified using glutathione-Sepharose 4B beads (Amersham Biosciences) and gel filtration on a sephacryl S-200 column (Amersham) as previously described27. For analysis of endogenous protein expression, cell lines were grown according to instructions from American Tissue Culture Collection, harvested and lysed in 1% NP-40 in PBS supplemented with protease inhibitors. After a 20,000 g centrifugation the supernatant was analysed by SDS-PAGE and immunoblotting. […] In vitro liposome tubulation assays were performed and analysed as previously described 10. […]

[4] = test system: GRAF1 BAR+PH overexpressing cells; experiment: localisation of overexpressed GFP-tagged GRAF1 BAR+PH protein, confocal microscopy; format: cell-based; conditions: 1 uM nocodazole for 1 hr
Source text: FIG. 9 Membrane tubules generated by the GRAF1 BAR+PH domain in vivo are mobile structures dependent upon microtubules. a, Representative Coomassie-stained gel of a typical liposome co-sedimentation assay with GST-tagged BAR+PH and liposomes of different diameters quantified in FIG. 2a (P=pellet, S=supernatant). b, Confocal micrographs showing the tubular localisation of overexpressed myc-tagged BAR+PH protein in HeLa cells and the cytoplasmic localisation of a similarly overexpressed protein with a BAR domain mutation (KK131/132EE). Scale bars=10 um. c, Electron micrographs of negatively-stained liposomes incubated in the presence or absence of GST-tagged GRAF1 BAR+PH protein. Note the presence of tubular structures present with BAR+PH protein and their absence in the control incubation. Scale bars=200 nm. d, Confocal micrographs of cells overexpressing GFP-tagged GRAF1 BAR+PH protein left untreated (Panel 1) or treated with 1 uM nocodazole for 1 hr and fixed immediately (Panel 2) or left to recover for 30 mins after nocodazole washout (Panel 3). Cells were then stained for beta-tubulin (lower images). GRAF1 BAR+PH-positive tubular structures were not present in nocodazole treated cells but recovered after nocodazole washout where they are observed to colocalise with beta-tubulin. e, Live cell spinning disc confocal imaging of a GFP-tagged GRAF1 BAR+PHover expressing cell at 20° C. […]

SMILES: O=S(=O)(c1cccc2cnccc12)N1CCCNCC1 [fasudil]
- toxicity in clinical trials [1]: non-toxic

SMILES: C[C@@H](N)[C@H]1CC[C@H](C(=O)Nc2ccncc2)CC1 [Y-27632]
- colocalisation of GRAF1 with focal complex markers (HeLa cells [2]): vinculin is found mostly in focal complexes where it co-localises with GRAF1
- number of GRAF1-positive tubules (HeLa cells [2]): increases the number of GRAF1-positive tubules
- colocalisation of GRAF1 with focal complex markers (HeLa cells [2]; listed as Rho kinase inhibitor): increased the colocalisation of GRAF1 with 1-integrin, vinculin and dynamin
- number of GRAF1-positive tubules (HeLa cells [2]; listed as Rho kinase inhibitor): dramatically increased the numbers of GRAF1-positive tubules

SMILES: O=C(N/N=C/c1ccc(O)c(O)c1)c1cc2ccccc2cc1O [dynasore]
- tubular dextran uptake (HeLa cells [3]): loss of tubular endocytosis through the CLIC/GEEC pathway; also recorded: profound reduction in tubular dextran uptake; also recorded: profoundly reduced ability to endocytose dextran in tubular structures
- GRAF1-positive tubular structures / GRAF1 distribution (HeLa cells [2]; 50 um dynasore): redistribute from tubular endocytic membranes to basal complexes; also recorded: reduction in GRAF1-positive tubular structures; also recorded: redistributed in these cells from tubular structures to basal punctae and rings

SMILES: COC(=O)Nc1nc2ccc(C(=O)c3cccs3)cc2[nH]1 [nocodazole]
- GRAF1 BAR+PH-positive tubular structures [4]: not present; also recorded: abolishes the tubular localisation
